Measured values: publication PMC2267855, “Site-directed mutagenesis of Arginine282 suggests how protons and peptides are co-transported by rabbit PepT1” (The International Journal of Biochemistry & Cell Biology, 2008)
Changes are numbered by the printed parent chain. pKi: −log10 of the molar value.

Columns and labels:
wild-type PepT1 [1] = target: T1, wild-type PepT1 (Oryctolagus cuniculus, UniProt P36836); experiment: Diethylpyrocarbonate inhibition of PepT1-mediated dipeptide uptake and protection by substrates; assay type: cell-based, rabbit; conditions: for protection of PepT1 from DEPC inhibition: 5 mM present during 1 mM DEPC incubation (15 min), uptake measured over 1 h
T1 construct: expressed in transfected cells; host or cells: Xenopus laevis oocytes injected with cRNA
T1 sequence (P36836 1-707): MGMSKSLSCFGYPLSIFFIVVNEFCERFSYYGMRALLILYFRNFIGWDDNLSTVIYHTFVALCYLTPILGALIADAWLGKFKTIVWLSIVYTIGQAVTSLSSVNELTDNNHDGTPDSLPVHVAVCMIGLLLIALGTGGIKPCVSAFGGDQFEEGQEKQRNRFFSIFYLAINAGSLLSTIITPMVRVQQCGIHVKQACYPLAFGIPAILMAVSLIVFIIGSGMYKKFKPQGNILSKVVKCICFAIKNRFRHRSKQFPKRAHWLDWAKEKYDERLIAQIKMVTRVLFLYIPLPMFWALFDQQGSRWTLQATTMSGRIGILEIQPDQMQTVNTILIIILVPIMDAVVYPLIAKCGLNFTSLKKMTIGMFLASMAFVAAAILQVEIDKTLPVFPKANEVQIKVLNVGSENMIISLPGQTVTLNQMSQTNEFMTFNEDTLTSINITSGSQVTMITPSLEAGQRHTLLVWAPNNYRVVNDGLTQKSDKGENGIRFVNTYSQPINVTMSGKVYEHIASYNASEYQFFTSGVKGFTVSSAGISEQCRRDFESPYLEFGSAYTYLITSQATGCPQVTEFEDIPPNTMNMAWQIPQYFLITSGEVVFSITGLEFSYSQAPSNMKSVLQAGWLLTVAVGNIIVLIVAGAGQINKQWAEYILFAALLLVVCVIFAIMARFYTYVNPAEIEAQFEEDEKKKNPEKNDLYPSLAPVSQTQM
Procedure: (§1) Zero-trans uptake of [^3H]-D-Phe-L-Gln (17.4 Ci/mmole, custom synthesised, Cambridge Research Biochemicals, Stockton-on-Tees, UK) was performed as previously described ([Meredith, 2004]). Briefly, 5 oocytes were incubated in 100 μl of uptake medium (95 mM NaCl, 2 mM KCl, 1 mM CaCl2, 0.42 mM MgCl2, 10 mM Tris/Hepes pH 7.4 or Tris/Mes pH 5.5) with tracer (0.4 μM) [^3H]-D-Phe-L-Gln. After incubation, the oocytes were washed sequentially five times in 1 ml of ice-cold 120 mM NaCl solution, lysed individually with 100 μl 2% (w/v) SDS and liquid scintillation counted. As a control non-injected oocytes were also incubated in uptake medium with [^3H]-D-Phe-L-Gln as above.
Diethylpyrocarbonate (DEPC) inhibition of PepT1 was performed using a similar protocol to that of [Terada, Saito, and Inui (1998)]. Briefly, PepT1 oocytes were preincubated with 1 mM DEPC for 15 min at pHout 5.5 in the absence or presence of the PepT1 substrates Gly-L-Gln, N-Acetyl-Phe ([Meredith et al., 2000]), and L-Ala-Tyramine (custom synthesised) and the non-substrate Tyr (all 5 mM). The oocytes were then washed in uptake medium before uptake assays were performed as detailed above.

wild-type PepT1 [2] = target: T1, wild-type PepT1; experiment: Membrane potential of oocytes expressing wild-type PepT1 (single microelectrode); assay type: cell-based, rabbit; conditions: 10 mM, pHout 5.5, 1 min
Procedure: (§2) Measurements of membrane potential were made by impaling oocytes with a single glass microelectrode (Intra 767 amplifier, WPI, Stevenage, Hertfordshire, UK) perfused in uptake medium (as above) with or without 0.4 μM D-Phe-L-Gln (synthesised in house), 0.6 mM Gly-L-Gln (Sigma, Poole, UK) or 10 mM 4-aminobenzoic acid (4-AMBA, Sigma). Two-electrode voltage clamp (TEVC) was performed by placing oocytes in a 0.1 ml recording chamber and perfusing with uptake solution (pH 5.5 or 7.4) at a rate of 15 ml/min. Oocytes were impaled by two agarose-cushioned microelectrodes filled with 3 M KCl (0.5–2.0 MΩ) and voltage-clamped at −60 mV using a Geneclamp 500B amplifier and PCLAMP 8.1 software (Axon Instruments, CA, USA). The holding potential was stepped from −60 mV over the range of −150 to +50 mV in 10 mV steps, each pulse lasting 100 ms, and returning to −60 mV in between test voltage pulses. Typically traces were filtered at 1 kHz during recording and digitized at 0.5–5 kHz using the DigiData 1200 interface (Axon Instruments, CA, USA). All experiments were carried out at room temperature.

R282E-PepT1 = target: T2, R282E-PepT1 (Oryctolagus cuniculus, UniProt P36836, R282E); experiment: Membrane potential of oocytes expressing R282E-PepT1 (single microelectrode); assay type: cell-based, rabbit; conditions: 10 mM, pHout 5.5, 1 min
T2 construct: expressed in transfected cells; host or cells: Xenopus laevis oocytes injected with cRNA
T2 sequence (P36836 1-707 R282E): T1 sequence (P36836 1-707) with R282E
Procedure: as §2

wild-type rabbit PepT1 = target: T3, wild-type rabbit PepT1 (Oryctolagus cuniculus, UniProt P36836); experiment: Inhibition of [3H]-D-Phe-L-Gln uptake into Xenopus oocytes expressing wild-type PepT1 (competition, Ki); assay type: cell-based; conditions: PepT1, data not shown; read-out: Ki (PepT1 substrate)
T3 construct: expressed in transfected cells; host or cells: Xenopus laevis oocytes injected with cRNA
T3 sequence (P36836 1-707): T1 sequence (P36836 1-707)
Procedure: as §1
The affinity of wild-type and mutant PepT1 were assessed by competition studies with 0.4 μM [^3H]-D-Phe-L-Gln and Gly-L-Gln present in the uptake medium in concentrations from 0 to 2 mM using the protocol above, and the Ki calculated using the method of [Deves and Boyd (1989)].

SMILES: CC(=O)NC(Cc1ccccc1)C(=O)O (stereo not shown) [N-Acetyl-Phe]
- protection of PepT1 from DEPC inhibition (wild-type PepT1 [1]): largely prevented

SMILES: Nc1ccc(C(=O)O)cc1 [4-AMBA, 4-aminobenzoic acid]
- membrane potential depolarisation (wild-type PepT1 [2]): failed to induce a depolarisation
- membrane potential depolarisation (R282E-PepT1): failed to induce a depolarisation

SMILES: CCOC(=O)OC(=O)OCC [DEPC, Diethylpyrocarbonate]
- inhibition of PepT1 mediated dipeptide uptake (wild-type PepT1 [1]; 1 mM, 15 min preincubation, pHout 5.5, uptake measured over 1 h): completely inhibited

SMILES: C[C@H](N)C(=O)NCCc1ccc(O)cc1 [L-Ala-Tyramine]
- pKi (wild-type rabbit PepT1): ~4.00
- protection of PepT1 from DEPC inhibition (wild-type PepT1 [1]): only partially prevented

SMILES: N[C@@H](Cc1ccc(O)cc1)C(=O)O [Tyr]
- protection of PepT1 from DEPC inhibition (wild-type PepT1 [1]): not
